Source: patent US20250108100A1, “C-TERMINAL FRAGMENT OF APOLIPOPROTEIN E AND APPLICATION THEREOF IN INHIBITING y-SECRETASE ACTIVITY” (SYNPHATEC (SHANGHAI) BIOPHARMACEUTICAL TECHNOLOGY CO., LTD., priority 2022, published 2025)
Entries after “also recorded” stand apart in the source; their conditions may differ.

Assays:
[1] = test system: human APP co-expressed in HEK 293T cells; test: α-CTF produced by APP co-expressed in HEK 293T cells (Western blot); assay type: cell-based; conditions: for α-CTF produced by co-expressed APP: Western blot, vs GFP control
Method: • a) A plasmid expressing the target protein in mammalian cells was constructed, and the protein expression promoter is CAG. • b) The target protein was expressed in HEK 293T cell line. Cells were subcultured one day before transfection, and transfection was performed when the degree of cell adhesion reached 70%-80%. The transfection reagent was lipofectamine2000 (ThermoFisher). • c) 4-6 hours post transfection, the medium were replaced with fresh cell culture medium. • d) 36-48 hours post transfection, the cells were lysed (10% 1M tris-HCl (pH=6.8), 4% SDS, 20% glycerol, 0.01% bromophenol blue), and the protein samples were collected and used for Western blot or stored in a −80° C. freezer. • e) Polyacrylamide gel electrophoresis. Before protein loading, the protein was boiled at 98° C. for 10 min, and then centrifuged at 12000 rpm for 10 min. Electrophoresis: 80V for the upper stacking gel; 120V for the lower separating gel. • f) Protein transfer. The filter paper was soaked in the electrophoresis solution before use, and the PVDF membrane was put in methanol for 10s to activate, and the gel after electrophoresis was taken out from the electrophoresis tank, put in the order of filter paper—PVD membrane—gel-filter paper from bottom to top, and they were put into the transfer instrument, with transferring in constant current at 0.1 A for 70 min. • g) Blocking and antibody incubation: the transferred PVDF membrane was placed in 5% BSA/TBST blocking solution, and blocked on a shaker at room temperature for 1 hour. The primary antibody was used to incubate at 4° C. overnight on a shaker (12-16 h); 1×TBST was used to wash three times, once every 10 minutes; the secondary antibody was used to incubate, shaked at room temperature for 1-2 h; 1×TBST was used to wash three times, once every 10 minutes. • h) Imaging by development: development was performed with ECL chemiluminescence hypersensitive chromogenic reagent.
(§1) Plasmids were transfected in HEK 293T or N2A cells for 36-48 hours and then lysed in cell lysis buffer [10% 1M tris-HCl (pH=6.8), 4% SDS, 20% glycerol, 0.01% bromophenol blue]. Lysates were shaken at room temperature for 10 min, then boiled for 10 min, and centrifuged at 12,000×g for 10 min. Proteins were run on 8% or 12% Tris-glycine SDS-PAGE and transferred to PVDF membranes (Life Technologies). Samples were incubated overnight at 4° C. with primary antibody diluted in 5% BSA buffer (in 1×TBST). After washing 3 times with 1×TBST, they were incubated with secondary antibody diluted in 5% BSA buffer (in 1×TBST) for 2 hours at room temperature. Finally, after washing 3 times with 1×TBST, the signal was detected by ECL Western blotting substrate (Solarbio, PE0010).
(§2) Data were analyzed by GraphPad Prism software (v6) using unpaired, paired, or one-sample t-tests. Aβ40 and Aβ42 levels were normalized to the corresponding GFP controls. α-CTF levels were normalized to FL-APP and corresponding GFP controls. All data are represented as mean±SEM. Statistical significance was defined as p<0.05. One, two, three and four stars (*) in the graph indicate p-values <0.05, <0.01, <0.001 and <0.0001, respectively.

[2] = test system: γ-secretase (PS1, PS2) knockout HEK 293T cells; test: PS1 KO, PS2 KO and PS1/2 dKO HEK 293T cell lines: α-CTF and Aβ40; assay type: cell-based, human; conditions: PS1 single knockout HEK 293T cells
Method: (§3) • a) A plasmid expressing the target protein in mammalian cells was constructed, and the protein expression promoter is CAG. • b) The target protein was expressed in HEK 293T cell line. Cells were subcultured one day before transfection, and transfection was performed when the degree of cell adhesion reached 70%-80%. The transfection reagent was lipofectamine2000 (ThermoFisher). • c) 4-6 hours post transfection, the medium were replaced with fresh cell culture medium. • d) 36-48 hours post transfection, the cells were lysed (10% 1M tris-HCl (pH=6.8), 4% SDS, 20% glycerol, 0.01% bromophenol blue), and the protein samples were collected and used for Western blot or stored in a −80° C. freezer. • e) Polyacrylamide gel electrophoresis. Before protein loading, the protein was boiled at 98° C. for 10 min, and then centrifuged at 12000 rpm for 10 min. Electrophoresis: 80V for the upper stacking gel; 120V for the lower separating gel. • f) Protein transfer. […]

human γ-secretase = biological target: T1, human γ-secretase (Homo sapiens, UniProt P49768); test: Purified system: cleavage of purified β-CTF by purified γ-secretase to Aβ40 (ELISA); assay type: biochemical
T1 construct: full-length PS1, FL-PS1; N-terminal fragment of PS1, PS1 NTF; C-terminal fragment of PS1, PS1 CTF; made in house; host or cells: HEK 293T

N100 (NOTCH fragment) = test: γ-cleavage of NOTCH fragment N100 in HEK 293T cells co-expressing γ-secretase (Western blot); assay type: cell-based; conditions: N100-V5 and γ-secretase, PF03084014 at 1 uM
Method: as §1

APLP1 = test: γ-cleavage of APLP1 expressed in HEK 293T cells (Western blot); assay type: cell-based; conditions: PF03084014 at 1 μM
Method: as §3
Plasmids were transfected in HEK 293T or N2A cells for 36-48 hours and then lysed in cell lysis buffer [10% 1M tris-HCl (pH=6.8), 4% SDS, 20% glycerol, 0.01% bromophenol blue]. […] Finally, after washing 3 times with 1×TBST, the signal was detected by ECL Western blotting substrate (Solarbio, PE0010).

[3] = test system: endogenously expressed APP in primary cultured mouse neurons; test: APP metabolite ~14 kD CTF in primary cultured mouse neurons (Western blot); assay type: cell-based; conditions: PF03084014 at 1 uM
[4] = test system: human APP and β-secretase co-expressed in HEK 293T cells; test: HEK 293T cells co-expressing APP and β-secretase (BACE1): Aβ ELISA and β-CTF Western blot; assay type: cell-based; conditions: APP and β-secretase co-expressed, ELISA, vs GFP control
Method: The experiment was performed according to the standard procedure in the ELISA analysis kit of Invitrogen Company. • a) The target protein was expressed in HEK 293T cell line. Cells were subcultured one day before transfection, and transfection was performed when the degree of cell adhesion reached 70%-80%. The transfection reagent was lipofectamine2000 (ThermoFisher). • b) 4-6 hours post transfection, medium were replaced with fresh cell culture medium. • c) 36-48 hours post transfection, the cell culture medium was collected, and then the ELISA process was performed or the cell culture medium was frozen in a −80° C. refrigerator. • d) 50 μl of standard samples and experimental samples were added to each well of the 96-well plate. • e) 50 μl of human-derived Aβ40 or Aβ42 or mouse-derived Aβ40 detection antibody was added to each well of the 96-well plate. • f) The above samples were shaken gently and placed at room temperature for 3 hours. • g) The liquid in the well were removed, and the plate was washed 4 times with 1× wash buffer. • h) 100 μl of the buffer containing 1× anti-Rabbit IgG HRP was added. • i) The plate was shaken gently and placed at room temperature for […]. • j) The liquid in the well were removed, and the well was washed 4 times with 1× wash buffer. • k) 100 μl of Stabilized Chromogen was added to each well, and the plate was placed in the dark for 30 minutes at room temperature. • l) 100 μl of Stop Solution was added to each well. • m) The absorbance at 450 nm was measured with a microplate reader. 2.4 qRT-PCR
48 hours after transfection of HEK 293T cells and N2A cells, or 4.5 days after lentivirus infection of neurons, media and lysates were collected. Aβ40 and Aβ42 in the culture medium and cell lysates were detected by an Aβ ELISA kit as indicated in the protocol. (Invitrogen Technology; KHB3481 for human Aβ40, KHB3441 for human Aβ42 and KMB3481 for mouse Aβ40).
as §2

PS2 = biological target: T2, PS2 (Homo sapiens, UniProt P49810); test: ApoE2-APEX2 proximity labeling of co-expressed PS2 in HEK 293T cells; assay type: binding
T2 construct: expressed in transfected cells; host or cells: HEK 293T
Method: (§4) A method for detecting protein interactions in living cells by targeting APEX2 was applied as previously described (Hung et al., 2016). Approximately 30 hours after transfection with APEX2 plasmids via Lipofectamine2000 (Invitrogen Technology), HEK 293T cells were incubated in 1 ml of complete medium with or without 250 uM biotinphenol (BP) for 30 minutes at 37° C. Cells were treated with 1 mM H2O2 for 1 min and cells were washed 3 times in quencher solution (10 mM sodium ascorbate, 5 mM Trolox and 10 mM sodium azide solution in 1×DPBS). Cells were lysed in RIPA lysis buffer (1× protein inhibitor cocktail, 1 mM PMSF and 10 mM sodium ascorbate, 5 mM Trolox and 10 mM sodium azide). The lysate was sonicated and centrifuged on ice (12,000×g, 4° C., 10 min), and the supernatant was incubated with streptavidin magnetic beads overnight at 4° C. The beads were collected using a magnetic rack and washed with a series of buffers (twice with RIPA buffer, once with 1M KCl, once with 0.1M Na2CO3, twice with 2 M urea in 10 mM Tris-HCl, pH 8.0, and twice with RIPA lysis buffer. Biotinylated proteins were eluted from the beads by boiling each sample in loading buffer comprising 2 mM biotin and 20 mM DTT for 10 min, and the eluates were collected. Samples proceed to Western blot.

[5] = test system: endogenously expressed APP; test: APEX2 proximity labeling of endogenous APP in primary cultured neurons; assay type: binding; conditions: primary cultured rat neurons
APP = test: APEX2 proximity labeling between ApoE and APP in HEK 293T cells; assay type: binding, human; conditions: co-expressed in HEK 293T cells
Method: as §4

ADAM10 (α-secretase) = biological target: T3, ADAM10 (α-secretase) (Homo sapiens, UniProt O14672); test: ApoE2-APEX2 proximity labeling of co-expressed ADAM10 in HEK 293T cells; assay type: binding
T3 construct: expressed in transfected cells; host or cells: HEK 293T
T3 sequence (O14672 214-748): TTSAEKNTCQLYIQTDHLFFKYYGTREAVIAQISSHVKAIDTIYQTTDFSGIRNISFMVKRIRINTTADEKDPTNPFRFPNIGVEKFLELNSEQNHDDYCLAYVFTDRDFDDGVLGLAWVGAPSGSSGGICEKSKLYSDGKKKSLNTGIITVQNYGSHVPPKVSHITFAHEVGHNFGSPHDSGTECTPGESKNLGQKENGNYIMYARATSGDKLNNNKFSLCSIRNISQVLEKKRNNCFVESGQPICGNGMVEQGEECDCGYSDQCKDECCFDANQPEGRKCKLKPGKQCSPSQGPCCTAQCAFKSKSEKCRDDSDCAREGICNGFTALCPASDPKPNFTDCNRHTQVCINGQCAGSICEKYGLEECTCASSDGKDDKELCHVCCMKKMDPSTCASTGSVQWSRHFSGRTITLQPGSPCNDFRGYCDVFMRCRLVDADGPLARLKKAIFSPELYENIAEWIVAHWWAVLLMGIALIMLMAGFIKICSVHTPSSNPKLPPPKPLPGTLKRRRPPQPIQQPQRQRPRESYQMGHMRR
Method: as §4

[6] = test system: APP co-expressed in mouse neuron cell line N2A; test: α-CTF produced by APP co-expressed in N2A cells (Western blot); assay type: cell-based; conditions: Western blot, vs GFP control
Method: as §1, §2

Chain of APP (P05067 672-770 limits assumed): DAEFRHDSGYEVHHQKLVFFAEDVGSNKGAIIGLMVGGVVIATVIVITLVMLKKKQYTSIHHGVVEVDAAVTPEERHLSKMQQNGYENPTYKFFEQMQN

CNC(=O)[C@@H](NC(=O)[C@H](CCCc1ccccc1)[C@H](C)N(O)C=O)C(C)(C)C [GI254023X, reference compound]
α-CTF level after ADAM10 inhibitor ([1]; 1 μM): about 45%

CCC[C@H](N[C@H]1CCc2cc(F)cc(F)c2C1)C(=O)Nc1cn(C(C)(C)CNCC(C)(C)C)cn1 [PF03084014]
α-CTF in PS1 KO cells [2]: further increased α-CTF levels | generation of Aβ by γ-secretase and β-CTF (human γ-secretase; 10 μM inhibitor): can inhibit the generation of Aβ; also recorded: can be inhibited | Aβ40 produced by incubation of γ-secretase with β-CTF (human γ-secretase; Example 2, legend b49: 1 uM inhibitor): complete blocked | α-CTF produced by APP co-expressed with PS1 ([1]; APP and PS1 co-expressed, PF03084014 at 1 μM): significantly increases α-CTF; also recorded: can increase the production of α-CTF; also recorded: also increases α-CTF | γ-secretase-dependent reduction of N100 (N100 (NOTCH fragment)): reversed this reduction | α-like CTF of APLP1 (APLP1): significantly increase the α-like CTF; also recorded: enhancing its cleavage product; also recorded: increased the α-like CTF | level of ~14 kD CTF (CTF141D) produced by APP metabolism [3]: significantly increased

ApoA1: another apolipoprotein co-expressed with APP, apolipoprotein A1
α-CTF produced by co-expressed APP [1]: failed to alter the levels of α-CTF | production of Aβ40 [4]: failed to alter

ApoE2-APEX2: ApoE2 fused to APEX2 (ascorbate peroxidase 2) for proximity labeling
biotinylation of co-expressed PS2 (PS2): biotinylated | biotinylation of endogenously expressed APP [5]: biotinylates | biotinylation of FL-APP and α-CTF (APP): could also be biotinylated | biotinylation of co-expressed ADAM10 (ADAM10 (α-secretase)): biotinylated

ApoE2-V5: ApoE2 with tag protein V5 (SEQ ID NO: 82) at C-terminal
α-CTF produced by co-expressed APP [1]: can significantly increase the α-CTF

ApoE3: human apolipoprotein E3, full-length 299 amino acid residues, SEQ ID NO: 89
α-CTF produced by co-expressed APP [6]: significantly increased the α-CTF levels | α-CTF produced by co-expressed APP [1]: can significantly increase α-CTF; also recorded: significantly increased the α-CTF levels | production of Aβ40 [4]: have no such effect

ApoE4: human ApoE isoform ApoE4 (Arg112; Arg158)
α-CTF produced by co-expressed APP [6]: failed to alter α-CTF levels | α-CTF produced by co-expressed APP [1]: cannot significantly change α-CTF | production of Aβ40 [4]: have no such effect; also recorded: failed to alter

CT ND3CD25: SEQ ID NO: 32; ApoE CT minus 3 N-terminal and 25 C-terminal residues (EEMGSRTRDRLDEVKEQVAEVRAKLEEQAQQIRLQAEAFQARLKSWFEPLVEDMQR)
production of Aβ40 [4]: can still significantly reduce Aβ40

V5-ApoE2: ApoE2 with tag protein V5 (SEQ ID NO: 82) at N-terminal
α-CTF produced by co-expressed APP [1]: can significantly increase the α-CTF
